Test results as given in patent US4359473A, “α-Amino deoxy clavulanic acid antibacterial agents” (priority 1977, dated 1982).

How the values were obtained:
Aqueous solubility = type: physicochemical
E. Coli E96 = assay: Subcutaneous synergistic activity with amoxycillin, intraperitoneal mouse infection, E. Coli E96; type: in vivo
Description: (§1) 9-N-Isobutylaminodeoxyclavulanic acid and 9-N-n-butylaminodeoxyclavulanic acid have been compared as synergists in vivo by the subcutaneous route against 2 strains of RTEM E. Coli in intraperitoneal mouse infections.
(§2) Comparative subcutaneous synergistic activity of 9-N-Isobutylaminodeoxyclavulanic acid and 9-N-n-butylaminodeoxyclavulanic acid with amoxycillin against mouse E. Coli infections

E. Coli E124 = assay: Subcutaneous synergistic activity with amoxycillin, intraperitoneal mouse infection, E. Coli E124; type: in vivo
Description: as §1, §2

E. coli JT 39 [1] = assay: Effectiveness as synergist with amoxycillin, peritoneal infection due to E. coli JT 39 (Demonstration 2); type: in vivo; conditions: for ED50: Escherichia coli, JT39, sc, Test 1, alone, sub-cutaneous 1 and 5 hours post infection, read-out: CD50 (approximate), compound alone
[2] = system: staphylococcus aureus Russell; assay: Effectiveness as anti-bacterial, mice infected with Staphylococcus aureus Russell (thigh lesion); type: in vivo; conditions: for Protection (%): subcutaneous at 1, 3 and 5 hours post infection
Protocol: Mice were infected with staphylococcus aureus Russell (thigh lesion with 0.2 ml im) and thereafter were dosed subcutaneously at 1, 3 and 5 hours post infection with a solution of the test compound.

in vivo = conditions: mouse, ip
[3] = system: β-lactamase producing strains of gram-negative and gram-positive bacteria; assay: Synergistic/antibacterial activity in-vivo, general statement; conditions: with penicillins and cephalosporins
E. coli JT 39 [4] = assay: In-vivo synergistic effect with amoxycillin in mice infected by E. coli JT 39
Protocol: This microorganism produces considerable quantities of a β-lactamase which degrades amoxycillin so reducing its antibaceterial effectiveness in-vivo.
(Sodium amoxycillin was prepared by dissolving amoxycillin trihydrate in
sodium carbonate/sodium bicarbonate buffer).

LD50 in mice = conditions: mouse, in vivo, sc

Q: What does the source list for `CC(C)CNC/C=C1\O[C@@H]2CC(=O)N2[C@H]1C(=O)O` [9-N-Isobutylaminodeoxyclavulanic acid]?
A: aqueous solubility (Aqueous solubility): increased aqueous solubility; relative synergist activity in vivo, 2 strains of RTEM E. Coli (E. Coli E96; subcutaneous route, intraperitoneal mouse infections, both strains (E96, E124)): more active then the n-butylamine

Q: With `CC1(C)S[C@@H]2[C@H](NC(=O)[C@H](N)c3ccc(O)cc3)C(=O)N2[C@H]1C(=O)O` [Amoxycillin] as the compound, how does the “CD50, amoxycillin alone” value (E. Coli E124; E. Coli E124, P412) read?
A: > 1000 mg/kg × 2

Q: And the ED50 (E. Coli E124; Escherichia coli, sc, E. Coli E124, P397, alone, read-out: CD50, amoxycillin alone)?
A: > 1000 mg/kg

Q: What about the “CD50, amoxycillin alone” value (E. Coli E96; E. Coli E96, P409, alone) of the same compound?
A: > 1000 mg/kg × 2

Q: And the ED50 (E. Coli E96; Escherichia coli, sc, E. Coli E96, P392, alone, read-out: CD50, amoxycillin alone)?
A: > 1000 mg/kg

Q: What about the ED50 (E. coli JT 39 [1]) of the same compound?
A: 1000 mg/kg

Q: And the “CD50 (approximate), compound alone” value (E. coli JT 39 [1]; Test 2, sub-cutaneous 1 and 5 hours post infection)?
A: 1000 mg/kg × 2

Q: What about the “CD50 (approximate), compound alone” value (E. coli JT 39 [1]; Test 3, sub-cutaneous 1 and 5 hours post infection) of the same compound?
A: 1000 mg/kg × 2

Q: For `Cc1nnc(SCC2=C(C(=O)O)N3C(=O)[C@@H](NC(=O)Cn4cnnn4)[C@H]3SC2)s1` [Cefazolin, reference compound], which “Protection (%)” value ([2]; 20 mg/kg) is on record?
A: 39.0%

Q: And the “Protection (%)” value ([2]; 50 mg/kg)?
A: 71.2%

Q: And the ED50 (E. coli JT 39 [1])?
A: 10.5 mg/kg

Q: For `Cc1onc(-c2ccccc2Cl)c1C(=O)N[C@@H]1C(=O)N2[C@@H]1SC(C)(C)[C@@H]2C(=O)O` [Cloxacillin, reference compound], which “Protection (%)” value ([2]; 20 mg/kg) is on record?
A: 61.6%

Q: What about the “Protection (%)” value ([2]; 50 mg/kg) of the same compound?
A: 91.7%

Q: For `O=C(O)[C@H]1/C(=C/CNCc2ccccc2)O[C@@H]2CC(=O)N21` [Example 2, 9-N-Benzylaminodeoxyclavulanic acid], which LD50 (in vivo) is on record?
A: > 1000 mg/kg

Q: And the synergistic activity in-vivo [3]?
A: particularly good synergistic activity in-vivo

Q: What about the “Protection (%)” value ([2]; 5 mg/kg) of the same compound?
A: 69.8%

Q: And the “Protection (%)” value ([2]; 10 mg/kg)?
A: 89.7%

Q: What about the “Protection (%)” value ([2]; 20 mg/kg) of the same compound?
A: 99.3%

Q: What about the “effectiveness in treating certain infections due to Staphylococcus aureus Russell” value ([2]; compared with ampicillin, cloxacillin or cefazolin) of the same compound?
A: more effective than ampicillin, cloxacillin or cefazolin

Q: What about the “protecting amoxycillin from the β-lactamase of E. coli JT 39 in-vivo” value (E. coli JT 39 [4]; administered orally) of the same compound?
A: less effective per given weight than when administered sub-cutaneously

Q: And the “toxic effects during these tests” value (E. coli JT 39 [4]; in-vivo synergy tests, mice)?
A: not observed to produce toxic effects

Q: What about the LD50 (LD50 in mice) of the same compound?
A: > 500 mg/kg

Q: Which “Protection (%)” value ([2]; 5 mg/kg) does the source give for `COc1ccc(CNC/C=C2\O[C@@H]3CC(=O)N3[C@H]2C(=O)O)cc1` [Example 7, 9-N-(4-Methoxybenzyl)aminodeoxyclavulanic acid] here?
A: 28.0%

Q: And the “Protection (%)” value ([2]; 10 mg/kg)?
A: 80.8%

Q: And the “Protection (%)” value ([2]; 20 mg/kg)?
A: 87.6%

Q: With `CC1(C)S[C@@H]2[C@H](NC(=O)[C@H](N)c3ccc(O)cc3)C(=O)N2[C@H]1C(=O)O` [Sodium amoxycillin, reference compound] as the compound, how does the ED50 (E. coli JT 39 [4]; Escherichia coli, JT39, sc, sub-cutaneous, mice, alone, read-out: CD50, sodium amoxycillin alone) read?
A: 200 mg/kg
